According to US10392368B2, “Pyrazolo and triazolo bicyclic compounds as JAK kinase inhibitors” (THERAVANCE BIOPHARMA R&D IP, LLC, priority 2017, dated 2019):
Where two headings read alike, the source gives them in different places.

Experiments:
JAK1 = molecular target: T1, JAK1 (Homo sapiens, UniProt P23458); assay: Biochemical JAK1 kinase assay (LanthaScreen); conditions: for Ki: read-out: JAK 1 (pKi) (converted)
T1 construct: GST; purchased Life Technologies
Method in brief: (§1)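 GST-JAK + GFP-STAT1 peptide + cpd, 1 h preinc RT; ATP start, 1% DMSO, 1 h RT; stop 10 mM EDTA + 2 nM Tb-anti-pSTAT1; 1 h; TR-FRET 520/495. % inhib vs DMSO/background → IC50 (4-PL) → pKi (Cheng-Prusoff).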

Tyk2 = molecular target: T2, Tyk2 (Homo sapiens, UniProt P29597); assay: Biochemical Tyk2 kinase assay (LanthaScreen); conditions: for Ki: read-out: Tyk 2 (pKi) (converted)
T2 construct: GST; purchased Life Technologies
T2 sequence (P29597 whole entry): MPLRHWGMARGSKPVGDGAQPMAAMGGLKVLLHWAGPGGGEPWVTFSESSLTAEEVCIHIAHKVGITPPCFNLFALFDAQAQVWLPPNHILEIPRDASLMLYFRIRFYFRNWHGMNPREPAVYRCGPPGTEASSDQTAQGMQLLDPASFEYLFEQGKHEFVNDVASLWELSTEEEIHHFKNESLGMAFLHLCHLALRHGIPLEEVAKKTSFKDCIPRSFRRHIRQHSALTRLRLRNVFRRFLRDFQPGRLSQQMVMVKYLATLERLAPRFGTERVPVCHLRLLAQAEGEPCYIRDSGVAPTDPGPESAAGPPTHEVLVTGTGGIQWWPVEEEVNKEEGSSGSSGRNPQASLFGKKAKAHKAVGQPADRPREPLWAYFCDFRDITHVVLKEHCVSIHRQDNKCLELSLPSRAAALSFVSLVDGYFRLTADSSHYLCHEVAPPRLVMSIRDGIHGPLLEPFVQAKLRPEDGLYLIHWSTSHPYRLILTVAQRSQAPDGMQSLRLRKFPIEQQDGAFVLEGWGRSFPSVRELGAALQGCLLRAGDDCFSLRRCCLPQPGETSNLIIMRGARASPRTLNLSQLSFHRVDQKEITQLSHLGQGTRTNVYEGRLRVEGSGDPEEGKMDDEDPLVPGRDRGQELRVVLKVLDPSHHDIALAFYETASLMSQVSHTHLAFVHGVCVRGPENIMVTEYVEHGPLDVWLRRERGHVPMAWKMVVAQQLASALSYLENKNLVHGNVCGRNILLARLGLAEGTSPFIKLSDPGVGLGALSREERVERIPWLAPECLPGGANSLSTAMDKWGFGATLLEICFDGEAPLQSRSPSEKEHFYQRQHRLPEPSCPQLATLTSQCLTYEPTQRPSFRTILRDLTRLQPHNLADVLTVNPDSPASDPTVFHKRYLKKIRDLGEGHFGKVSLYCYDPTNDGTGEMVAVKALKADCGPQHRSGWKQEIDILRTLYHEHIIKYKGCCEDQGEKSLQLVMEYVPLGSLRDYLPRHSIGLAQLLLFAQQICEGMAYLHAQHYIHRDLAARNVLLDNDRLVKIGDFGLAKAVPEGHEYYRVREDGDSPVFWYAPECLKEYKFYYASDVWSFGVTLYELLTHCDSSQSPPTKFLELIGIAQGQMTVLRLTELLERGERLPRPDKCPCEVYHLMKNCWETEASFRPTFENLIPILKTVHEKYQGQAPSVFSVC
Method in brief: as §1

JAK3 = molecular target: T3, JAK3 (Homo sapiens, UniProt P52333); assay: Biochemical JAK3 kinase assay (LanthaScreen); set-up: GST; purchased Life Technologies; conditions: for JAK3 (pKi)-JAK1 (pKi): selectivity: difference of pKi JAK3 and pKi JAK1; for Ki: read-out: JAK 3 (pKi) (converted)
T3 sequence (P52333 1-1124): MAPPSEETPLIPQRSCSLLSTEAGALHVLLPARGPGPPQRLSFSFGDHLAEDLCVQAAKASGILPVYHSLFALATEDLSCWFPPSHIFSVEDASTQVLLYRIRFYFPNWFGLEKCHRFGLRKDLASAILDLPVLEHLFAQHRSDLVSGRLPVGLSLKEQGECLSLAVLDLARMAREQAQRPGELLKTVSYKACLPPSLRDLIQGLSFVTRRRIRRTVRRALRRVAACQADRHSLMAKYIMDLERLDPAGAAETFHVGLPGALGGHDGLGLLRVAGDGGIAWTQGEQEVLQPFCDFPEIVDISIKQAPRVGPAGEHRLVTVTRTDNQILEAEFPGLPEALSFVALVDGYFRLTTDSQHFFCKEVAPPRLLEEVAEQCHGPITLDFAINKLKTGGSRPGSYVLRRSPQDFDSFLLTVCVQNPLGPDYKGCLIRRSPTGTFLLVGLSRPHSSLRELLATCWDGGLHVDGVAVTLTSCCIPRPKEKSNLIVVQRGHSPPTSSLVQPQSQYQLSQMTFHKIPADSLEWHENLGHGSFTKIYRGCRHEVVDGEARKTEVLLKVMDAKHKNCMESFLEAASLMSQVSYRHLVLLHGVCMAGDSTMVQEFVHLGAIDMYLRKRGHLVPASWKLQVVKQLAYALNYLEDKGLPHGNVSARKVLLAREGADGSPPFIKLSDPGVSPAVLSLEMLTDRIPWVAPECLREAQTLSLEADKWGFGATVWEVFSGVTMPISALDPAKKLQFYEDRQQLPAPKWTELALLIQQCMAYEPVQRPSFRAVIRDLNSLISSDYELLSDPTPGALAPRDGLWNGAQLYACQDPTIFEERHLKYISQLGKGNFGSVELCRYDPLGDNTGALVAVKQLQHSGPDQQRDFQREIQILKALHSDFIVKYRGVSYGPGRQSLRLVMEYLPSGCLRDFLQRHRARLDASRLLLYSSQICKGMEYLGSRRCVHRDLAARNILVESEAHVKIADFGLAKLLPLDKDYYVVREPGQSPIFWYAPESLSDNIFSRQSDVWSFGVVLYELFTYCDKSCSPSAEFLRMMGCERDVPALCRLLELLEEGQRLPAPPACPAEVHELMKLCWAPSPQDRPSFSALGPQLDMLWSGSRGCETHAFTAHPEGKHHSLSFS
Method in brief: as §1

[1] = tested on: IL-2 stimulated pSTAT5 in Tall-1 T cells; assay: Cellular JAK3 potency assay: inhibition of IL-2 stimulated pSTAT5 in Tall-1 T cells; type: cell-based, human; conditions: for IC50: Homo sapiens, read-out: Tall-1 (pIC50) (converted)
Method in brief: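 In human Tall-1 T cells, IL-2 (300 ng/ml final, 30 min) drives STAT5 phosphorylation after a 1 h compound pretreatment. Lysates are assayed for pSTAT5 by AlphaLisa, and IC50 derived from signal versus concentration is expressed as pIC50.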

JAK2 = molecular target: T4, JAK2 (Homo sapiens, UniProt O60674); assay: Biochemical JAK2 kinase assay (LanthaScreen); conditions: for Ki: read-out: JAK 2 (pKi) (converted)
T4 construct: GST; purchased Life Technologies
T4 sequence (O60674 whole entry): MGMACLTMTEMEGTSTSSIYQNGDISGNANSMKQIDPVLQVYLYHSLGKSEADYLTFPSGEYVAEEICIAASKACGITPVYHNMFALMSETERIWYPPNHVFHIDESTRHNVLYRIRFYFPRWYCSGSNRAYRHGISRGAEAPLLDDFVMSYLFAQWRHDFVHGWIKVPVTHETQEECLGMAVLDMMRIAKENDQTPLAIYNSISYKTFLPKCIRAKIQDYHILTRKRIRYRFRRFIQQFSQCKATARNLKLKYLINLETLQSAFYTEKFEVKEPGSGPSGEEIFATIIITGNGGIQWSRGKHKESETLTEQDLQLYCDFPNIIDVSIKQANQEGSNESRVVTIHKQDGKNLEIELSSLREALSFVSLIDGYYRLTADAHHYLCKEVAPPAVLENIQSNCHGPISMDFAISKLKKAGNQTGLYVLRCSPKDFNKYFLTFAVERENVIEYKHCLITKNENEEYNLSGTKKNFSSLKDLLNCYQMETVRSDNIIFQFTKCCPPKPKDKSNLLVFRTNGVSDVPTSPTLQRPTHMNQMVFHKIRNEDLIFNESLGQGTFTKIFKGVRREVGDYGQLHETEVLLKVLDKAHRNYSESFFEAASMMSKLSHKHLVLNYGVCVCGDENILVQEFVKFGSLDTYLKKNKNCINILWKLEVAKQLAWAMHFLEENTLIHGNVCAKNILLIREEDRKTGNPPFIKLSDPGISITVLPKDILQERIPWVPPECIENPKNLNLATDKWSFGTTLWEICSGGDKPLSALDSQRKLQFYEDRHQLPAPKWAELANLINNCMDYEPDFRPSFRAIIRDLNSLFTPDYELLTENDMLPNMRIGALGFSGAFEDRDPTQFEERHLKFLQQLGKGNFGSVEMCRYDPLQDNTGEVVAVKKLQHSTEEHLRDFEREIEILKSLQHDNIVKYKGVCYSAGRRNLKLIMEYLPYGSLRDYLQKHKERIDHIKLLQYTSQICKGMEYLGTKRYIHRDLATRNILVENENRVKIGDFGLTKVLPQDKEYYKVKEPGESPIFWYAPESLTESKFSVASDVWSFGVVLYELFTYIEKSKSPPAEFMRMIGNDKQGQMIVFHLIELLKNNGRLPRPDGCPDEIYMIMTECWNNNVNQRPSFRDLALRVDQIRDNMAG
Method in brief: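 GST-tagged recombinant JAK2 pre-incubated 1 h at ambient temperature with compound and GFP-STAT1 peptide in HEPES pH 7.5/MgCl2 buffer, then ATP added for a 1 h reaction with 1% DMSO. TR-FRET read after EDTA and Tb-anti-pSTAT1 (pTyr701) addition; IC50 from 4-parameter fit, converted to pKi by Cheng-Prusoff.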

[2] = IL-2 stimulated pSTAT5 in Tall-1 T cells
[3] = TALL-1, IL-2 stimulated pSTAT5 in Tall-1 T cells

T1 sequence (P23458 whole entry): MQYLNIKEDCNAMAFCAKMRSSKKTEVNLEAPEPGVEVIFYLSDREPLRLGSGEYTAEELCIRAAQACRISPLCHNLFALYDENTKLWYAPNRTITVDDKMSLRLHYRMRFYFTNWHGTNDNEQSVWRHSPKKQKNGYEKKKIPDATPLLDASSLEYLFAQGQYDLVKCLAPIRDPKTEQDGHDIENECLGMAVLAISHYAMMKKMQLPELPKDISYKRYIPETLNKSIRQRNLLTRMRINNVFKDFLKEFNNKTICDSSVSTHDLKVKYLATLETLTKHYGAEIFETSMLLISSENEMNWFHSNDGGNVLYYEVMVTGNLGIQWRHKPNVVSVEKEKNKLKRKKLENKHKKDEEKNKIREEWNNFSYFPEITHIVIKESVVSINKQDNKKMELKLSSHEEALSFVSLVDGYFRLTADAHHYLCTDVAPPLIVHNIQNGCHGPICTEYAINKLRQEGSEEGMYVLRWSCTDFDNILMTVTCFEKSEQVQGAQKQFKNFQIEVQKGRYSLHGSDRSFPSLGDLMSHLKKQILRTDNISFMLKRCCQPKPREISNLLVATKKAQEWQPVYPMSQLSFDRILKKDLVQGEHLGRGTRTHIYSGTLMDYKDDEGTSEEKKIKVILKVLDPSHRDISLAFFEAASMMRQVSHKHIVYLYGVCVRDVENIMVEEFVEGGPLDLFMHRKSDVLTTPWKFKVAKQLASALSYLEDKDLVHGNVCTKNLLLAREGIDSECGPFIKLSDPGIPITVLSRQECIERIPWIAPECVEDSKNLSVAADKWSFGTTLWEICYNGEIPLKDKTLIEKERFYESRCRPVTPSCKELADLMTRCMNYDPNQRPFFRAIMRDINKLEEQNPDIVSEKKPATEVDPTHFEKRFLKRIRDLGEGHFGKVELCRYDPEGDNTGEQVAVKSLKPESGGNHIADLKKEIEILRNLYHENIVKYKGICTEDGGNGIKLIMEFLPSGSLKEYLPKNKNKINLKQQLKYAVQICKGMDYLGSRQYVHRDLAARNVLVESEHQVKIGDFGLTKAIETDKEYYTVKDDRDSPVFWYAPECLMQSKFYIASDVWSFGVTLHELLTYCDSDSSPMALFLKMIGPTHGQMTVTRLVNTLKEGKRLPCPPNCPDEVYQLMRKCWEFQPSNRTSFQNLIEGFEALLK

| Structure (SMILES) | JAK 1 (pKi) (JAK1) | Tyk 2 (pKi) (Tyk2) | JAK 3 (pKi) (JAK3) | JAK3 (pKi)-JAK1 (pKi) (JAK3) | Tall-1 (pIC50) [1, 2] | JAK 2 (pKi) (JAK2) | Ki (JAK1) [nM] | Ki (Tyk2) [nM] | Ki (JAK3) [nM] | IC50 [1, 3] [nM] | Ki (JAK2) [nM] | IC50 [1, 2] [nM] |
| --- | --- | --- | --- | --- | --- | --- | --- | --- | --- | --- | --- | --- |
| CCC1(COc2cc(-c3ccc(O)cc3)cc3[nH]ncc23)CN(C(=O)/C=C/CN(C)C)C1 [Compound 3-13] | E (a pKi value of 7 or below (Ki of 100 nM or above)) | E (a pKi value of 7 or below (Ki of 100 nM or above)) | B (a pKi value between 9 and 10 (Ki between 1 nM and 0.1 nM)) | A (a value of 3 or above) | A (a pIC50 value≥7.5 (IC50≤32 nM)) | D (a pKi value between 7 and 8 (Ki between 100 nM and 10 nM)) |  |  |  |  |  |  |
| CCC1(COc2cc(-c3ccc(O)c(Cl)c3)cc3[nH]ncc23)CN(C(=O)/C=C/CN(C)C)C1 [Compound 3-15] |  |  |  | A (a value of 3 or above) |  |  | > 100 | > 100 | < 0.1 | 31.6 to 200 | > 100 |  |
| CCC1(COc2cc(-c3ccc(O)c(F)c3)cc3[nH]ncc23)CN(C(=O)/C=C/CN(C)C)C1 [Compound 3-17] | E (a pKi value of 7 or below (Ki of 100 nM or above)) | E (a pKi value of 7 or below (Ki of 100 nM or above)) | A (a pKi value≥10 (Ki≤0.1 nM)) | A (a value of 3 or above) | A (a pIC50 value≥7.5 (IC50≤32 nM)) | D (a pKi value between 7 and 8 (Ki between 100 nM and 10 nM)) |  |  |  |  |  |  |
| CN(C)C/C=C/C(=O)N1CC(C#N)(COc2cc(-c3ccc(O)cc3)cc3[nH]ncc23)C1 [Compound 3-19] | E (a pKi value of 7 or below (Ki of 100 nM or above)) | E (a pKi value of 7 or below (Ki of 100 nM or above)) | B (a pKi value between 9 and 10 (Ki between 1 nM and 0.1 nM)) | A (a value of 3 or above) | B (a pIC50 value between 6.7 (included) and 7.5 (IC50 between 200 nM and 32 nM)) | E (a pKi value of 7 or below (Ki of 100 nM or above)) |  |  |  |  |  |  |
| C=CC(=O)N1CC(C#N)(COc2cc(-c3ccc(O)cc3)cc3[nH]ncc23)C1 [Compound 3-20] | E (a pKi value of 7 or below (Ki of 100 nM or above)) | E (a pKi value of 7 or below (Ki of 100 nM or above)) | B (a pKi value between 9 and 10 (Ki between 1 nM and 0.1 nM)) | B (a value of 2.3 to 3) | B (a pIC50 value between 6.7 (included) and 7.5 (IC50 between 200 nM and 32 nM)) | D (a pKi value between 7 and 8 (Ki between 100 nM and 10 nM)) |  |  |  |  |  |  |
| CN(C)C/C=C/C(=O)N1CC(C#N)(COc2cc(-c3ccc(O)c(Cl)c3)cc3[nH]ncc23)C1 [Compound 3-21] |  |  |  | A (a value of 3 or above) |  |  | > 100 | > 100 | 0.1 to 1 | < 31.6 | > 100 |  |
| C=CC(=O)N1CC(C#N)(COc2cc(-c3ccc(O)c(Cl)c3)cc3[nH]ncc23)C1 [Compound 3-22] |  |  |  | A (a value of 3 or above) |  |  | > 100 | > 100 | < 0.1 |  | > 100 | 31.6 to 200 |
| C=CC(=O)N1CC(C#N)(COc2cc(-c3ccc(O)c(F)c3)cc3[nH]ncc23)C1 [Compound 3-23] | E (a pKi value of 7 or below (Ki of 100 nM or above)) | E (a pKi value of 7 or below (Ki of 100 nM or above)) | A (a pKi value≥10 (Ki≤0.1 nM)) | A (a value of 3 or above) | B (a pIC50 value between 6.7 (included) and 7.5 (IC50 between 200 nM and 32 nM)) | D (a pKi value between 7 and 8 (Ki between 100 nM and 10 nM)) |  |  |  |  |  |  |
| CN(C)C/C=C/C(=O)N1CC(C(C)(C)Oc2cc(-c3ccc(O)cc3)cc3[nH]ncc23)C1 [Compound 3-24] | E (a pKi value of 7 or below (Ki of 100 nM or above)) | E (a pKi value of 7 or below (Ki of 100 nM or above)) | B (a pKi value between 9 and 10 (Ki between 1 nM and 0.1 nM)) | A (a value of 3 or above) | B (a pIC50 value between 6.7 (included) and 7.5 (IC50 between 200 nM and 32 nM)) | E (a pKi value of 7 or below (Ki of 100 nM or above)) |  |  |  |  |  |  |
